melting point: 145 °C
SMILES: CC(=O)N1CCC[C@@H](Oc2cc(F)cc(NC(=O)Nc3cccnc3)c2)C1 [Example 1, (R)-1-[3-(1-Acetyl-piperidin-3-yloxy)-5-fluoro-phenyl]-3-pyridin-3-yl-urea]
